In patent publication US20230000842A1, “METHODS OF TREATING CARTILAGE DISORDERS THROUGH INHIBITION OF CLK AND DYRK” (SAMUMED, LLC, priority 2019, published 2023):

How the values were obtained:
SIRT1 (pSer27, pSer47) = assay: Western blot of phospho-SIRT1 with IL1-β; assay type: cell-based, human; conditions: hMSCs and chondrocytes; in the presence of IL-1β; compared to DMSO
Procedure: (§1) Cells were plated at 300,000 cells per well in a 6-well plate and following an overnight incubation, treated with DMSO (vehicle control) or indicated compounds and incubated at 37° C. and 5% CO2 for the indicated times. Following treatment, cells were trypsinized and pelleted by centrifugation and washed with PBS. Total protein from the cell pellet was extracted or for fractionation, protein was fractionated into cytoplasmic and nuclear fractions using a Nuclear and Cytoplasmic Extraction Reagents (NE-PER™) kit containing Halt™ protease and phosphatase inhibitors (Thermo Fisher). Protein concentrations were quantified using the Pierce Micro BCA protein assay kit (Thermo Fisher). […] Blots were blocked with non-fat dry milk. Primary antibodies were incubated overnight at 4° C. β-actin and Lamin B1 were used as loading controls (Supplementary Table S2 for primary antibodies). Mouse and rabbit horseradish peroxidase (HRP)-conjugated secondary antibodies were diluted in 5% blocking buffer in TBS-T. Protein-antibody complexes were detected by chemiluminescence using the SuperSignal West Femto Chemiluminescent Substrate (Thermo Fisher) and images were captured with a UVP ChemiDocIt2 camera system (Fisher Scientific, Hampton, N.H.).

[1] = test system: cartilage of MIA injected rats; assay: Monosodium iodoacetate (MIA) injection induced OA model, cartilage Western blot; assay type: in vivo, rat; conditions: 4 days after single IA injection
Procedure: Western blots for phospho-SRSF, SRSF1, AXIN2, phospho-NF-κB, total NFκB, phospho-STAT3, total STAT3, phospho-FOXO1 and total FOXO1 in the cartilage, with β-actin as a loading control.
Male Sprague Dawley (SD) rats (250 g±30 g) (Charles River, Wilmington, Mass.) were used for all animal studies. All animals were treatment naïve at the start of the studies. Procedures were performed during the hours of 8 am-5 pm on weekdays in a sterile hood in the vivarium. Rats were housed in individual ventilated cages (≤3 per cage) under the following conditions:
For cytokine, MMP, histology (H&E and Safranin O-Fast Green staining), OARSI scores and weight bearing measurements: At 10 weeks postnatal age, 20 rats were subjected to MIA injection (3 mg in 50 μL). Each rat was anesthetized with an isoflurane/O2 mixture until the flexor withdrawal reflex was abolished. The surgeon wore a face mask, hair net, lab coat and shoe covers, and gloves that were disinfected with betadine or chlorhexidine between animals. All tools were sterilized with an autoclave. MIA was dissolved in 0.9% (w/v) saline (3 mg in 50 μL). The solution was filtrated with 0.22 μm membrane before administration. After being shaved and disinfected with betadine or chlorhexidine solution, the right knees were injected intra-articularly with 50 μL of MIA using 0.5-in 26-gauge needle, while the contralateral knees received an IA injection of 0.9% saline. After injection, the injected surface was washed with sterile saline solution. All the rats were allowed to move freely in plastic cages until their necropsies at different time points post-MIA injection.
On day 11, animals were sacrificed using Carbon dioxide (CO2). Cartilage was isolated, flash frozen in liquid Nitrogen and stored at −80° C. until processing for protein extraction.

[2] = test system: CLK mediated phosphorylation of SRSF4, 5, 6; assay: Western blot of phospho-SRSF in hMSCs and human chondrocytes; assay type: cell-based; conditions: 1 hr, vs DMSO
Procedure: as §1

[3] = test system: NF-κB pathway gene expression in THP1 cells; assay: qRT-PCR of NF-κB pathway components in THP1 cells stimulated with LPS; assay type: cell-based
Procedure: Fold change relative to unstimulated control is shown (n=3, Mean±95% CI, *p<0.05, **p<0.01, ***p<0.001, one-way ANOVA).
Total RNA was isolated using a RNAeasy kit (Qiagen) as per the manufacturer's protocol. cDNA was synthesized using the iScript cDNA Synthesis Kit (Bio-Rad). Quantitative real-time PCR was performed using the CFX384 (Bio-Rad) using gene specific SYBR-green or TaqMan™ primers. Relative gene expression was determined by normalizing to housekeeping genes using the ΔΔCt method. Data was collected from at least 3 replicates per assay.

[4] = test system: primary human mesenchymal stem cells (hMSCs); assay: Chondrogenesis screening using primary human mesenchymal stem cells; assay type: cell-based; conditions: Homo sapiens, Mesenchymal stem cells
Procedure, shortened: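 Primary hMSCs at passage 3–6 were treated across compound concentrations, with TGF-β3 as positive control. Chondrogenic nodule area per well was normalized to 3 DMSO wells on the same plate (fold over DMSO, 2–3 replicates). EC50, maximum activity and the dose reaching it were derived.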

## CC(C)CC(=O)Nc1cncc(-c2ccc3[nH]nc(-c4nc5c(-c6cccc(F)c6)cncc5[nH]4)c3c2)c1 [compound 123]
SIRT1 (pSer27, pSer47)
  phosphorylation of SIRT1 (pSer27, pSer47): dose-dependently and more potently inhibited
[1]
  protein levels of total FOXO1: increased
  protein levels of total NF-κB: decreased
  total protein levels of SRSF1 and STAT3: no changes
[1]; compared to vehicle
  phosphorylation of SRSF, NF-κB, STAT3, and FOXO1: decreased
[2]
  CLK mediated phosphorylation of SRSF4, 5, 6: dose-dependently inhibited
[3]
  LPS-stimulated gene expression of NF-κB components (RELA, RELB): inhibited
  NF-κB inhibitors (NFKBIA, NFKBIB, IKKβ, IKKγ) expression: without effects
  expression of NF-κB pathway genes (NFKB1, NFKB2, RELA, RELB and BCL3): inhibited
[4]; hMSC chondrogenesis, maximum activity relative to TGF-β3 (10 ng/mL) positive control, read-out: Max. Activity as % TGF-β3 activity
  Emax: 397%
[4]; read-out: Conc (nM) of 50% TGF-β3 activity
  EC50: 30 nM
